In patent US20240293339A1, “COMPOUNDS, COMPOSITIONS AND METHODS FOR THE PREVENTION AND/OR TREATMENT OF VARIOUS MITOCHONDRIAL DISEASES OR DISORDERS, INCLUDING FRIEDREICH'S ATAXIA” (Stealth Bio Therapeutics Inc., priority 2021, published 2024):
“Also recorded” adds a separate entry of the source.

How the values were obtained:
[1] = tested on: frataxin deficient fibroblasts (Friedreich's ataxia patient fibroblast cell line GM03665); experiment: Frataxin deficient fibroblast viability assay (the BSO Assay); assay type: cell-based, human; conditions: for EC50: Homo sapiens, Fibroblast, FA patient fibroblasts pretreated with drug 250 nM down to 6.125 nM the day before BSO 10 mM, MTT 48 hrs later; for BSO assay activity compared with vatiquinone (in words) / protection against ferroptosis (in words): summary of Table 1 BSO assay data
Experimental: Example 6: Frataxin Deficient Fibroblast Viability Assay (the “BSO Assay”)
This Example was used to evaluate the various new compositions for their potential efficacy in the treatment of Friedreich's Ataxia (FA or FRDA) based on their potential to inhibit ferroptosis based on this BSO assay—performed substantially as described in the above cited Reference (Matthias et al.).
The stock solutions of the test articles (and control compounds) were prepared in dimethyl sulfoxide (DMSO at 10 mM). Working stock solutions (2 times concentrated) were prepared on the day of the experiment in respective cell culture medium to be used for assay (detailed medium description below). A listing of compounds used as test articles in this Example 12 are found in Table 1, below.
A patient derived frataxin deficient fibroblast cell line was obtained from Coriell Institute. More specifically, the following cell lines/DNA samples were obtained from the NIGMS Human Genetic Cell Repository at the Coriell Institute for Medical Research: GM03665. To evaluate importance of various growth conditions on cell susceptibility to BSO toxicity cells were grown on:
MEM (Sigma-Aldrich) 15% Fetal Bovine Serum (FBS) without growth factors;
MEM (Sigma-Aldrich) 15% FBS with growth factors (Catalogue number 100-18B, Recombinant Human FGF-basic (154 a.a.) and catalogue number AF-100-15, Animal-Free Recombinant Human EGF from Peprotech);
MEM199/MEM EBS (Bioconcept Ltd.) 10% FBS, insulin 10 μg/ml, L-glutamine 2 mM with growth factors (Catalogue number 100-18B, Recombinant Human FGF-basic (154 a.a.) and catalogue number AF-100-15, Animal-Free Recombinant Human EGF from Peprotech).
To conduct an experiment, fibroblast cells (from all growth conditions) were seeded (100 μL (cells 3×10∧3/well) on 96-well plates in MEM199/MEM EBS medium 10% FBS, insulin 10 μg/mL, L-glutamine 2 mM with growth factors and allowed to grow on plate for 24 hrs. After 24 hrs., media was removed and then test compounds of interest were added (100 μL, 2 times concentrated stock) to 96-well plates (end DMSO concentration not exceeding 0.5%) and incubated for 24 hours. Then L-buthionine-sulfoximine (BSO, from Acros Organics, Cat. No. 235520010) was added (100 μL, 2 times concentrated stock) at end concentrations ranging from 1 to 10 mM. Both test compounds and BSO were dissolved in MEM199/MEM EBS medium 10% FBS, insulin 10 μg/mL, L-glutamine 2 mM with growth factors. Cell viability was monitored and either after 24- or 48-hours cell viability was assayed by MTT (Thiazolyl blue tetrazolium bromide) assay. For the MTT assay, media was removed and 100 μL of MTT 1 mg/mL was added, incubated for 2 hours at +37° C., then medium was removed and 100 μL of isopropanol added to dissolve sediment. Absorption was measured at 570 (OD570) and 650 (OD650) nm wavelengths. Control cells (vehicle instead of BSO and compound) and vehicle control (with BSO, but vehicle instead of test compound) were treated in the same manner as cells with BSO and compound. All cell media contained penicillin and streptomycin 100 U/mL each.
Absorption readouts were processed as follows: ValueΔ=ValueOD570-ValueOD650 and the obtained values were used to calculate cell viability as % of control cell (i.e., no BSO, no compound, just vehicle) viability.
Except as otherwise indicated in Table 1, all samples were run in at least 3 replicates for test compounds and at least 8 replicates for controls (i.e., both control (no BSO, no compound) and vehicle control (i.e., with BSO, no compound). Exact N per data points are indicated in the figures/table legends. Results for the compounds (test articles and controls) tested are listed in Table 1, below.
This is a cell-based assay measuring cytotoxicity which results from oxidative stress subsequent to depletion of endogenous glutathione defense mechanisms. […]

[2] = Concentration of therapeutic agents in blood and brain tissue in rat following oral administration; assay type: in vivo; conditions: male SD rats; for Brain level: perfused brain homogenate; for drop in plasma concentration relative to the next larger compound pair: 2-1/3-1 vs vatiquinone/1-1, 4-1/5-1 vs 2-1/3-1; for brain level (in words): summary of Table 1 brain concentration data; for Cmax: male, Sprague-Dawley, rat, plasma, po, 10 mg/kg
Experimental: Example 7: Study of Concentration of Therapeutic Agents in Blood and Brain Tissue in Rat Following Oral Administration
This study was intended to examine and compare the concentration of the various therapeutic agents tested in blood and brain tissue shortly after oral administration to rats.
The experimental procedures were carried out in accordance with the guidelines of the European Community and local laws and policies and were approved by the Latvian Animal Protection Ethical Committee, Food and Veterinary Service, Riga, Latvia. Animals were housed in the animal facilities at the Latvian Institute of Organic Synthesis (LIOS) under standard conditions (21-23° C., 12 h light-dark cycle) with unlimited access to food (R70 diet, Lantmännen Lantbruk, Sweden) and water. Male Sprague Dawley (SD) rats (8 weeks old at the time of purchase, from Envigo) were used for the study and were allowed an acclimatization period of at least 1 week prior to treatment. No drugs or vaccines were administered before the start of the study. Only healthy animals were included in the study. Animals were weighed on the day of treatment (before treatment) to calculate the required volume of working solution of compound (i.e. therapeutic agent) administered. No drugs except the therapeutic agent to be tested were administered during the study. Rats were dosed orally with compound (1 times weight μL, solution 10 mg/mL, dissolved in sesame oil).
Animals were anaesthetized using 5% isoflurane inhalation at selected time points after administration of test compounds. Then chest was opened and blood drawn from the heart and collected in EDTA coated microtubes (Sarstedt). Transcardial perfusion was performed afterwards by perfusing ice-cold PBS solution for 4 minutes, ˜55 mL total perfusion volume. Afterwards brain tissues were collected in microtubes and frozen in liquid nitrogen. Blood was centrifuged for 3 min at 10000 g within 15 minutes of collection. Plasma was collected in low-binding microtubes (Nerbe plus) by adding 95 μL of plasma to 5 μL of 2% HCOOH to obtain 100 μL of plasma solution with HCOOH end concentration 0.1%. Plasma was frozen in liquid nitrogen and stored at −80° C.
Tissue samples were weighed in 2 mL micro centrifuge tubes. Microtubes were kept on ice throughout the procedure. Tissue homogenates were prepared using acidified (0.1% HCOOH) water by adding 4 times volume to weighed samples. Two metal beads were placed in each micro centrifuge tube and brain tissues homogenized using Bead Ruptor (Omni International, USA) for 60 s using speed 4 ms per cycle. Homogenates (96 uL) were transferred to 1.5 mL low binding micro centrifuge tubes. Homogenates were frozen and kept at −80° C. until sample extraction for LC/MS/MS analysis.
Extraction of spiked SD Rat EDTA plasma or brain homogenate standards was performed by adding to 100 μL of spiked rat plasma or brain homogenate standard sample of 400 μL of deproteinization solution, 1% formic acid in MeOH with IS (reserpine 15 ng/mL). Samples were vortex mixed for 10 sec at 2800 rpm and incubated on orbital shaker for 10 min at 200 rpm. Then vortex mixed for 10 sec at 2800 rpm and centrifugated at 12000 rpm for 30 min in 5° C. Supernatants were transferred to LC vials and used for analysis. Extraction of rat EDTA plasma or brain homogenate analytical samples was performed by adding to 96 μL of rat plasma or brain homogenate analytical sample of 4 μL of DMSO, vortex mix the samples. Then 400 μL of deproteinization solution, 1% formic acid in MeOH with IS (reserpine 15 ng/mL) were added. Samples were vortex mixed for 10 sec at 2800 rpm and incubated on orbital shaker for 10 min at 200 rpm. Then vortex mixed for 10 sec at 2800 rpm and centrifugated at 12000 rpm for 30 min in 5° C. Supernatants were transferred to LC vials and used for analysis.
Data collected for each of the various therapeutic agents tested (i.e. vatiquinone and Compounds 1-1, 2-1, 3-1, 4-1 and 5-1 are summarized in Table 1, below.

[3] = 10 mg/mL solution in sesame oil, LC/MS/MS
[4] = 10 mg/mL solution in sesame oil, EDTA plasma, LC/MS/MS

Row | Structure (SMILES) | EC50 [1] | BSO assay activity compared with vatiquinone (in words) [1] | protection against ferroptosis (in words) [1] | Brain level [2, 3] | drop in plasma concentration relative to the next larger compound pair [2] | brain level (in words) [2] | Cmax [2, 4] | Plasma Cmax [2, 4]
1 | CC(C)=CCC[C@@](C)(O)CCC1=C(C)C(=O)C(C)=C(C)C1=O [Compound 4-1, (R)-2-(3-hydroxy-3,7-dimethyloct-6-en-1-yl)-3,5,6-trimethylcyclohexa-2,5-diene-1,4-dione] | 90.5 nM | not quite as effective as vatiquinone | protective against ferroptosis | 0 ng/g | ~20 fold | no concentration of these compounds detected | 5.5 ng/mL | 
2 | CC(C)=CCC/C(C)=C/CC[C@@](C)(O)CCC1=C(C)C(=O)C(C)=C(C)C1=O [Compound 2-1, (R,E)-2-(3-hydroxy-3,7,11-trimethyldodeca-6,10-dien-1-yl)-3,5,6-trimethylcyclohexa-2,5-diene-1,4-dione] | 141 nM | not quite as effective as vatiquinone | protective against ferroptosis | 24.5 ng/g | ~5 fold | comparable to those observed with vatiquinone | ~100 ng/mL | 
3 | CC(C)=CCC/C(C)=C/CC/C(C)=C/CC[C@@](C)(O)CCC1=C(C)C(=O)C(C)=C(C)C1=O [vatiquinone, 2-[(3R,6E, 10E)-3-Hydroxy-3,7,11,15-tetramethyl-6,10,14-hexadecatrien-1-yl]-3,5,6-trimethyl-2,5-cyclohexadiene-1,4-dione, reference compound] | 40.7 nM |  | protective against ferroptosis | 20.8 ng/g |  |  | ~500 ng/mL | 457 ng/mL
4 | CC(C)=CCC/C(C)=C/CC/C(C)=C/CC[C@](C)(O)CCC1=C(C)C(=O)C(C)=C(C)C1=O [Compound 1-1, 2-[(3S,6E,10E)-3-hydroxy-3,7,11,15-tetramethyl-6,10,14-hexadecatrien-1-yl]-3,5,6-trimethyl-2,5-cyclohexadiene-1,4-dione] | 16.6 nM | at least equivalent to that of vatiquinone; also recorded: as good as vatiquinone | protective against ferroptosis | 8.3 ng/g |  |  | ~500 ng/mL | 
5 | CC(C)=CCC/C(C)=C/CC[C@](C)(O)CCC1=C(C)C(=O)C(C)=C(C)C1=O [Compound 3-1, (S,E)-2-(3-hydroxy-3,7,11-trimethyldodeca-6,10-dien-1-yl)-3,5,6-trimethylcyclohexa-2,5-diene-1,4-dione] | 41.2 nM | as good as vatiquinone | protective against ferroptosis | 22.0 ng/g | ~5 fold | comparable to those observed with vatiquinone | ~100 ng/mL | 
6 | CC(C)=CCC[C@](C)(O)CCC1=C(C)C(=O)C(C)=C(C)C1=O [Compound 5-1, (S)-2-(3-hydroxy-3,7-dimethyloct-6-en-1-yl)-3,5,6-trimethylcyclohexa-2,5-diene-1,4-dione] | 39 nM | as good as vatiquinone | protective against ferroptosis | 0 ng/g | ~20 fold | no concentration of these compounds detected | 3.2 ng/mL | 
